Experiments:
Hra mutant plants = assay: Foliar application to Hra mutant plants; assay type: in vivo, Nicotiana tabacum
ALS [1] = assay: ALS assay of leaf extracts, wild type tobacco; assay type: biochemical, Nicotiana tabacum CV.NK326 or K14; conditions: DPX-F6025 at 10ppb, activity without herbicide = 100 percent
Method: (§1) Approximately 1-2 weeks late shoots developing on kanamycin-selected explants were excised with a sterile scalpel and planted in A medium containing 100 mg/l kanamycin. Root formation on selective and non-selective media was recorded within 3 weeks. Shoots which rooted in kanamycin were transferred to soil and grown in a growth chamber as described above. After 3 to 5 weeks, but before flowering had occurred, leaf tissue was excised and used for ALS assays as described in Example VI. […] Individual flowers were bagged to permit self-fertilization without cross-pollination. Mature seeds were harvested and progeny tests were conducted to determine inheritance of the herbicide resistance trait. Seeds were surface sterilized as described above, dried and planted on SG medium (1/4 MS salts, 0.75% sucrose, 0.8% Agar) in the presence or absence of herbicide (DPX-F6025, Classic®). […] A segregration ratio of 3 resistant progeny to 1 sensitive indicated the presence of a single-site insertion of the SURB-Hra gene in the trasnformant which was stably inherited. […] Higher ratios of resistant to sensitive progeny indicated multiple insertions at unlinked positions in the genome. The 15/1 ratio indicates the presence of 2 unlinked SURB-Hra genes and 255/1 ratio indicates 4 unlinked SURB-Hra genes in the transformants K14 #40 and K14 #7, respectively.
Keep on ice. • 2. […] Read at OD 530.

[2] = tested on: progeny of tobacco transformants; assay: Progeny test of seeds on SG medium with herbicide; assay type: in vivo, Nicotiana tabacum CV.NK326 or K14
Method: as §1

ALS [3] = assay: ALS assay of leaf extracts, wild-type tomato; assay type: biochemical, Lycopersicon esculentum var. Herbst Red Cherry
Method: After approximately 2-4 weeks, shoots developing off of kanamycin-selected cotyledons were excised and planted in OMS media containing 500 mg/L cefotaxime and 100 mg/L kanamycin. Tomato shoots which rooted in kanamycin after about 2-3 weeks were transferred to soil in 8" pots and covered with plastic bags. The plants were grown under mixed fluorescent and incandescent lights for a 12 hr, 24°C day; 12 hr, 20°C night cycle, with approximately 80% relative humidity, for one week before removing the plastic bags. The plants were grown for another 2-4 weeks before performing ALS assays. […]
Keep on ice. • 2. […] 16K rpm, 4°C. • 4. […] Incubate on ice for 30 minutes. • 6. […] Decant supernatant. • 7. Resuspend pellet in 1 ml cold column buffer. • 8. […] Let this run through column. • 9. Elute proteins with 2X volume of extract loaded. […] Incubate reaction for 1 hour, 30°C. • 12. […] Spin in microfuge 5 minutes. • 13. […] Read at OD 530.

tobacco callus = assay: Growth of tobacco mutant callus (C3, S4, Hra) on herbicide; assay type: cell-based, Nicotiana tabacum var. Xanthi
Method: (§2) Callus cultures of sensitive tobacco (Nicotiana tabacum var. Xanthi) were exposed to sulfometuron methyl at 2 ppb according to the method described by Chaleff, U.S. 4,443,971. […] Plants were regenerated from Hra callus cultures. […] ALS activity in extracts of leaves of wild type and homozygous Hra mutant tobacco plants was determined.

ALS [4] = assay type: biochemical, Nicotiana tabacum; conditions: C3 and S4 lines
Method: as §2

## CC(C)C1(C)N=C(c2ncccc2C(=O)O)NC1=O.CC(C)N (stereo not drawn)
Hra mutant plants
  cross resistance to foliar application: cross resistant

## 6-(4-isopropyl-4-methyl-5-oxo-2-imidazolin-2-yl)-m-toluic acid and p-toluic acid, methyl esters
Hra mutant plants
  cross resistance to foliar application: cross resistant

## COc1nc(C)nc(NC(=O)NS(=O)(=O)c2ccccc2OCCCl)n1 [2-(2-chloroethoxy)-N-[(4-methoxy-6-methyl-1,3,5-triazin-2-yl)aminocarbonyl]benzenesulfonamide]
Hra mutant plants
  cross resistance to foliar application: cross resistant

## CC(C)C1(C)N=C(c2nc3ccccc3cc2C(=O)O)NC1=O (stereo not drawn) [2-[4,5-dihydro-4-methyl-4-(1-methylethyl)-5-oxo-1H-imidazol-2-yl]-3-quinolinecarboxylic acid]
Hra mutant plants
  cross resistance to foliar application: cross resistant

## COC(=O)c1ccccc1S(=O)(=O)NC(=O)Nc1nc(C)cc(C)n1 [2-[[(4,6-dimethylpyrimidin-2-yl)aminocarbonyl]aminosulfonyl]benzoic acid, methyl ester]
Hra mutant plants
  cross resistance to foliar application: cross resistant

## CCOC(=O)c1ccccc1S(=O)(=O)NC(=O)Nc1nc(Cl)cc(OC)n1 [2-[[(4-chloro-6-methoxypyrimidin-2-yl)aminocarbonyl]aminosulfonyl]benzoic acid, ethyl ester]
Hra mutant plants
  cross resistance to foliar application: cross resistant

## COC(=O)c1c(C)cccc1S(=O)(=O)NC(=O)Nc1nc(C)cc(OC)n1 [2-[[(4-methoxy-6-methylpyrimidin-2-yl)aminocarbonyl]aminosulfonyl]-6-methylbenzoic acid, methyl ester]
Hra mutant plants
  cross resistance to foliar application: cross resistant

## COc1nc(C)nc(NC(=O)NS(=O)(=O)c2ccccc2Cl)n1 [2-chloro-N-[(4-methoxy-6-methyl-1,3,5-triazin-2-yl)aminocarbonyl]benzenesulfonamide]
Hra mutant plants
  cross resistance to foliar application: cross resistant

## Cc1cc(C)n2nc(S(=O)(=O)Nc3c(C)cccc3[N+](=O)[O-])nc2n1 [5,7-dimethyl-N-(2-methyl-6-nitrophenyl)[1,2,4]triazolo[1,5-A]pyrimidin-2-sulfonamide]
Hra mutant plants
  cross resistance to foliar application: cross resistant

## CCC1C=NC(C2=NC(C)(C(C)C)C(=O)N2)=C(C(=O)O)C1 (stereo not drawn) [5-ethyl-4,5-dihydro-2-[4-methyl-4-(1-methylethyl)-5-oxo-1H-imidazol-2-yl]-3-pyridinecarboxylic acid]
Hra mutant plants
  cross resistance to foliar application: cross resistant

## COc1cc(OC)nc(NC(=O)NS(=O)(=O)c2c(Cl)ccc3c2S(=O)(=O)N(C)CC3)n1 [7-chloro-N-[(4,6-dimethoxypyrimidin-2-yl)aminocarbonyl]-3,4-dihydro-2-methyl-2H-1,2-benzothiazine-8-sulfonamide, S,S-dioxide]
Hra mutant plants
  cross resistance to foliar application: cross resistant

## CCOC(=O)c1ccccc1S(=O)(=O)NC(=O)Nc1nc(Cl)cc(OC)n1 [DPX-F6025]
ALS [1]; K14 wT
  % Unhibited ALS Activity: 7%
ALS [1]; NK326(wT)
  % Unhibited ALS Activity: 7%
[2]; K14 #7, 100ppb DPX-F6025
  Progeny Resistant/Sensitive: 990/4
[2]; K14 #7, 1000bbp DPX-F6025
  Progeny Resistant/Sensitive: 109/1
[2]; K14 #11, 100ppb DPX-F6025
  Progeny Resistant/Sensitive: 208/85
[2]; K14 #11, 1000bbp DPX-F6025
  Progeny Resistant/Sensitive: 127/76
[2]; K14 #27, 100ppb DPX-F6025
  Progeny Resistant/Sensitive: 129/45
[2]; K14 #27, 1000bbp DPX-F6025
  Progeny Resistant/Sensitive: 108/42
[2]; K14 #29, 100ppb DPX-F6025
  Progeny Resistant/Sensitive: 192/46
[2]; K14 #29, 1000bbp DPX-F6025
  Progeny Resistant/Sensitive: 163/67
[2]; K14 #32c, 100ppb DPX-F6025
  Progeny Resistant/Sensitive: 140/65
[2]; K14 #32c, 1000bbp DPX-F6025
  Progeny Resistant/Sensitive: 63/86
[2]; K14 #40, 100ppb DPX-F6025
  Progeny Resistant/Sensitive: 218/18
[2]; K14 #40, 1000bbp DPX-F6025
  Progeny Resistant/Sensitive: 212/26
[2]; K14 #41, 100ppb DPX-F6025
  Progeny Resistant/Sensitive: 255/35
[2]; K14 #41, 1000bbp DPX-F6025
  Progeny Resistant/Sensitive: 296/74
[2]; K14 #42, 100ppb DPX-F6025
  Progeny Resistant/Sensitive: 162/74
[2]; K14 #42, 1000bbp DPX-F6025
  Progeny Resistant/Sensitive: 77/72
[2]; K14 #53, 100ppb DPX-F6025
  Progeny Resistant/Sensitive: 130/59
[2]; K14 #53, 1000bbp DPX-F6025
  Progeny Resistant/Sensitive: 149/139
[2]; K14 #54A, 100ppb DPX-F6025
  Progeny Resistant/Sensitive: 137/55
[2]; K14 #54A, 1000bbp DPX-F6025
  Progeny Resistant/Sensitive: 100/72
[2]; K24 #31, 100ppb DPX-F6025
  Progeny Resistant/Sensitive: 106/35
[2]; K24 #31, 1000bbp DPX-F6025
  Progeny Resistant/Sensitive: 99/34
[2]; NK326 #9c, 100ppb DPX-F6025
  Progeny Resistant/Sensitive: 163/49
[2]; NK326 #9c, 1000bbp DPX-F6025
  Progeny Resistant/Sensitive: 99/63
[2]; NK326 #10, 100ppb DPX-F6025
  Progeny Resistant/Sensitive: 93/31
[2]; NK326 #10, 1000bbp DPX-F6025
  Progeny Resistant/Sensitive: 96/24
[2]; NK326 #10c, 100ppb DPX-F6025
  Progeny Resistant/Sensitive: 333/45
[2]; NK326 #10c, 1000bbp DPX-F6025
  Progeny Resistant/Sensitive: 290/76
[2]; NK326 #9d, 100ppb DPX-F6025
  Progeny Resistant/Sensitive: 288/67
[2]; NK326 #9d, 1000bbp DPX-F6025
  Progeny Resistant/Sensitive: 150/58
[2]; X14 #54, 100ppb DPX-F6025
  Progeny Resistant/Sensitive: 99/38
[2]; X14 #54, 1000bbp DPX-F6025
  Progeny Resistant/Sensitive: 92/43
[2]; nk326 #1, 100ppb DPX-F6025
  Progeny Resistant/Sensitive: 98/37
[2]; nk326 #1, 1000bbp DPX-F6025
  Progeny Resistant/Sensitive: 90/35
ALS [3]; 10ppb
  Percent Uninhibited ALS Activity: 15%
ALS [3]; 100ppb
  Percent Uninhibited ALS Activity: 5%
ALS [3]; 1000ppb
  Percent Uninhibited ALS Activity: 4%

## Cc1cc(C)n2nc(S(=O)(=O)Nc3c(Cl)cccc3Cl)nc2n1 [N-(2,6-dichlorphenyl)-5,7-dimethyl[1,2,4]triazolo [1,5-A]pyrimidin-2-sulfonamide]
Hra mutant plants
  cross resistance to foliar application: cross resistant

## Cc1cc(C)n2nc(S(=O)(=O)Nc3c(C)cccc3Cl)nc2n1 [N-(2-chloro-6-methylphenyl)-5,7-dimethyl[1,2,4]triazolo[1,5-A]pyrimidin-2-sulfonamide]
Hra mutant plants
  cross resistance to foliar application: cross resistant

## COc1cc(OC)nc(NC(=O)NS(=O)(=O)c2cccc3c2S(=O)(=O)C(C)C3)n1 (stereo not drawn) [N-[(4,6-dimethoxypyrimidin-2-yl)aminocarbonyl]-2,3-dihydro-2-methylbenzo[β]thiophene-7-sulfonamide, 1,1-dioxide]
Hra mutant plants
  cross resistance to foliar application: cross resistant

## COC(=O)c1ccccc1S(=O)(=O)NC(=O)Nc1nc(C)cc(C)n1 [sulfometuron methyl]
Tobacco callus; C3 cell line (SURA-C3, proline-to-glutamine at position 197)
  selective herbicide resistance conferred by the mutation: conferred resistance
Tobacco callus; Hra cell line
  tolerated concentrations compared with that required to completely inhibit the growth of wild type callus: one thousand times greater
Tobacco callus; S4 cell line
  selective concentration which completely inhibits the growth: 200 ppb
ALS [4]
  resistance of ALS enzyme activity compared with ALS from wild type: one-hundred fold
